The record followed here is patent US8637509B2, “Azaindazoles” (GlaxoSmithKline LLC, priority 2010, dated 2014).

pIC50: −log10 of the molar value. Where two headings read alike, the source gives them in different places.

The target in the test is T1, EZH2 (Homo sapiens, UniProt Q15910).
T1 construct: GRITS37108
Nature of the test: EZH2 methyltransferase SPA assay (3H-SAM, Hela nucleosomes). Format: biochemical. As to conditions: read-out: IC50.

T1 sequence (Q15910 whole entry): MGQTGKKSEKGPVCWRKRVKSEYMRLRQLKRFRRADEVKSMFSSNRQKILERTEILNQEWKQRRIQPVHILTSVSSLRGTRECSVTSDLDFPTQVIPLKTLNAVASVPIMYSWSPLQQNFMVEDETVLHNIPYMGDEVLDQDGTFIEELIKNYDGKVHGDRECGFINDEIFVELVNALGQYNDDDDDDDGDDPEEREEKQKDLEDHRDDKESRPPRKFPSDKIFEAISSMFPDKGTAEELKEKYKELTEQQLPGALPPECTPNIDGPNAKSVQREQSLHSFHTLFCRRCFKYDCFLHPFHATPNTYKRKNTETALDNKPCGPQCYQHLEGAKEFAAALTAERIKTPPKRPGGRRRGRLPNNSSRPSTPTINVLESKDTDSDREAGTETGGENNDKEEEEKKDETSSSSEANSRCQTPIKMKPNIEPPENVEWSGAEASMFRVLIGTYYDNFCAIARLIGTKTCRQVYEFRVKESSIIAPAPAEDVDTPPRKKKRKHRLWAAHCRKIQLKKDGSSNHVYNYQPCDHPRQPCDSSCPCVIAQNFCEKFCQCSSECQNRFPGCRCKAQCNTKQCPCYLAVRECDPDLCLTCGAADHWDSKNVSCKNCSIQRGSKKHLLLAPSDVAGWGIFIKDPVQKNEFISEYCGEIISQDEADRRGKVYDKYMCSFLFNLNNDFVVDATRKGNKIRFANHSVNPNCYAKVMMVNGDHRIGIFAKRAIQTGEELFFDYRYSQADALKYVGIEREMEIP
T1 sequence (O75530 whole entry partner): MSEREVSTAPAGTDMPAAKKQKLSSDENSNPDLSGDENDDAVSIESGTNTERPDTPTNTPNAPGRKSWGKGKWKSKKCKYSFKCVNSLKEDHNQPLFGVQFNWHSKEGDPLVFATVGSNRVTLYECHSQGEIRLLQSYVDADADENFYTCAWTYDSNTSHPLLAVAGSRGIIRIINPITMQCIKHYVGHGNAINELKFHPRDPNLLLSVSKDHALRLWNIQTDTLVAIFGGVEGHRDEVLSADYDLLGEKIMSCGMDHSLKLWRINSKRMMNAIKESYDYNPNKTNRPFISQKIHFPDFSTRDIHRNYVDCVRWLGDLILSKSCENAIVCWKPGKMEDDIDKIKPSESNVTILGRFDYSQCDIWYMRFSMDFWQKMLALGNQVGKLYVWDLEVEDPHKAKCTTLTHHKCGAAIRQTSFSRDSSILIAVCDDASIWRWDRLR
T1 sequence (Q15022 whole entry partner): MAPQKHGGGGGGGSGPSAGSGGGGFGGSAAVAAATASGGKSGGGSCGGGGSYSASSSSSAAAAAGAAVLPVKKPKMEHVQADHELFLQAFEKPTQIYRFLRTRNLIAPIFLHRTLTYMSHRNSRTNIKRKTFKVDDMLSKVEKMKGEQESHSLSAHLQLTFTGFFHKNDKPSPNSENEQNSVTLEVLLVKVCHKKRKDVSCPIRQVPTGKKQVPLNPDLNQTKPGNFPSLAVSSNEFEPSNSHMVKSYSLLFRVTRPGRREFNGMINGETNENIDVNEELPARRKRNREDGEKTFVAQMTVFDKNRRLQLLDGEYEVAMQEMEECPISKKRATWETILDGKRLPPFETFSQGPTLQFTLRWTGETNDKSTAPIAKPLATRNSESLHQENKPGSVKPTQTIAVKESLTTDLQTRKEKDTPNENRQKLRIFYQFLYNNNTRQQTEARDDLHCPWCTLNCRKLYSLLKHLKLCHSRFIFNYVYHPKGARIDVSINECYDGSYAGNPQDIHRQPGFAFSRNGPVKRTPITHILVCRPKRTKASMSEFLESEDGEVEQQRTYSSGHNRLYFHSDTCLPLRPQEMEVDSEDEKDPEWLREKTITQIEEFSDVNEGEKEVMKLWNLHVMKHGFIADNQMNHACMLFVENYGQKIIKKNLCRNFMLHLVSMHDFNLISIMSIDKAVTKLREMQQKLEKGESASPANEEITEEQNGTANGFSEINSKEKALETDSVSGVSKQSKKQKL
Method: • 1. […] Prepare 500 μM SAH quench solution in ddH20 with 5-10 drops of concentrated HCl to dissolve. • 5. Prepare 6 mg/ml RNA binding SPA beads (Perkin Elmer) suspended in 0.2 M Citric Acid, pH 2.2
Part C. […] Dispense 5 μL no enzyme control (assay buffer mix) to column 18 of plates. • 2. Dispense 5 μL of enzyme mix to the remaining wells in the plate. Centrifuge plate to mix and incubate at room temperature for 30 minutes. • 3. Dispense 5 μL of substrate mix to all wells to initiate the reactions. Centrifuge plate to mix and incubate at room temperature for 2 hours. • 4. […] Dispense 10 μL of 6 mg/ml RNA binding SPA beads prepared in 0.2 M citric acid, pH 2.2 using the Evolution instrument. Continuously shake the beads while adding to plates to prevent beads from settling. • 6. Seal the plates with Perkin Elmer top seals and allow the beads to equilibrate in the plate for at least 30 minutes at room temperature. • 7. […] Read plates in Microbeta after at least 5 hours incubation. Plates can be read immediately, but signal increases over time.
Reagent addition can be done manually or with automated liquid handler.
*The final DMSO concentration in this assay is 1%.
*The positive control is in column 6; negative control is in column 18.

On to `Cc1cc(C)c(CNC(=O)c2cc(-c3ccccc3[N+](=O)[O-])nc3c2cnn3C(C)C)c(=O)[nH]1` [Ex 124, N-[(4,6-Dimethyl-2-oxo-1,2-dihydro-3-pyridinyl)methyl]-1-(1-methylethyl)-6-(2-nitrophenyl)-1H-pyrazolo[3,4-b]pyridine-4-carboxamide], for which the pIC50 is 5.98.
Still for that read-out and setting: the figure for `CCCc1cc(C(=O)NCc2c(C)cc(C)[nH]c2=O)c2cnn(C(C)C)c2n1` [Ex 125, N-[(4,6-Dimethyl-2-oxo-1,2-dihydro-3-pyridinyl)methyl]-1-(1-methylethyl)-6-propyl-1H-pyrazolo[3,4-b]pyridine-4-carboxamide] is 5.66.
With “N-[(4,6-Dimethyl-2-oxo-1,2-dihydro-3-pyridinyl)methyl]-1-(1-methylethyl)-6-(2-phenylethyl)-1H-pyrazolo[3,4-b]pyridine-4-carboxamide [Ex 32]”, the pIC50 (10 nM EZH2, 7 μg/ml Hela nucleosomes, 2-parameter IC50 fit, single-point-in-time values) is 6.07.
